Measurements reported in patent US7981438B2, “Use of α-mangostin as a mosquito larvicide” (Wisconsin Alumni Research Foundation, priority 2007, dated 2011).
Where a name gives a salt, the structure may show the parent alone.

Experiments:
mosquito larvae = test: toxicity assessment (larval mortality, Probit LD50) in mosquito larvae; assay type: in vivo; conditions: for LD50 in 4th instar (ppm) / LD50 (uM) in 4th instar: 4th instar larvae
Protocol: Compound was tested at concentrations within the range of 0.65-25.00 μM. Each assay included 60 larvae (1st instar or 4th instar) in 60 ml ddH2O containing either compound or control agent, mortality was recorded until 90% adult emerge rate. The percentage of mortality was transformed into Probit value and plotted against concentration to determine the LD50 value. Each assay was repeated at least three times with different batches of larvae. The mean and standard deviation values are listed above. ND=not determined due to very low mortality.
Compounds were tested at concentrations within the range of 0.65-25.00 μM. Each assay included 60 larvae (1st instar or 4th instar) in 60 ml ddH2O containing either compound or control agent. Mortality was recorded until 90% adult emerge rate. The percentage of mortality was transformed into Probit value and plotted against concentrations to determine the LD50 value. Each assay was repeated at least three times with different batches of larvae.

[1] = tested on: mosquito 4th instar larvae; test: neutral lipid levels in the midgut of 4th instar larvae (Red Oil O staining); assay type: in vivo
Protocol: The newly molted 4th instar larvae were treated with DMSO (the negative control), 25 μM SCPI-1 (the positive control), and 10 μM α-mangostin. The midgut tissue was dissected out at the indicated point in time after treatment initiation. The dissected treated midgut tissue was stained with Red Oil O for neutral lipids in situ.

recombinant AeSCP-2 = molecular target: T1, recombinant AeSCP-2 (Aedes aegypti, UniProt Q86PR3); test: in vitro competition binding assay, NBD-cholesterol binding to AeSCP-2; design: species or system mosquito; conditions: at 0.1 mM concentration
T1 sequence (Q86PR3 1-110): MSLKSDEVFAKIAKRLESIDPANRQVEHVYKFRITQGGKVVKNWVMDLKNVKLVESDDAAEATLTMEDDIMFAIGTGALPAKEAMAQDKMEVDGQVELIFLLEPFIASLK
Protocol: At 0.1 mM concentration, α-mangostin decreased NBD-cholesterol binding to AeSCP-2 by 23-29%. […] Specifically, FIG. 1 illustrates the inhibitory effect of α-mangostin on NBD-cholesterol binding to recombinant AeSCP-2. RFU=relative NBD-cholesterol fluorescent unit normalized with NBD-cholesterol background readings. The assays that were used included 5 μM NBD-cholesterol+5 uM AeSCP-2+increasing concentrations of α-mangostin in […] potassium phosphate buffer (pH 7.4).

complement C3 = conditions: compared with phytoestrogens; FIG. 5, Hopert et al. 1998; cited from earlier work
[2] = 1st instar larvae, same LD50 expressed in ppm
[3] = 1st instar larvae, tested 0.65-25.00 μM, mean ± SD
[4] = tested 0.65-25.00 μM, mean ± SD

Compound	LD50 in 1st instar (ppm) (mosquito larvae; [2])	LD50 (uM) in 1st instar (mosquito larvae; [3]) [µM]	LD50 in 4th instar (ppm) (mosquito larvae; same LD50 expressed in ppm)	LD50 (uM) in 4th instar (mosquito larvae; [4]) [µM]	fraction of midgut neutral lipids depleted ([1]; 25 μM SCPI-1, 24 hour-old 4th instar larvae)	LD50 (uM) in 1st instar (mosquito larvae; mosquito, in vivo) [µM]	LD50 in 1st instar (ppm) (mosquito larvae; mosquito, in vivo)	decrease of NBD-cholesterol binding to AeSCP-2 (recombinant AeSCP-2)	neutral lipids in the midgut ([1]; 10 μM α-mangostin, after 24 hours treatment, 4th instar larvae)	reproductive side effects in mammals, measured by formation of complement C3 (complement C3)
CC(=O)Nc1ccc(Nc2nc(-c3ccc(Cl)c(Cl)c3)cs2)cc1 [SCPI-1, N-(4-{[4-(3,4-dichlorophenyl)-1,3-thiazol-2-yl]amino}phenyl)acetamide hydrobromide, reference compound]	1.93	4.21 ± 0.38	(or, 11.04 ppm)	24.04 ± 4.16	about ½					
COc1ccc(-c2cc(=O)c3c(O)cc(O)c(-c4cc(-c5cc(=O)c6c(O)cc(O)cc6o5)ccc4OC)c3o2)cc1 [isoginkgetin]						11.29 ± 3.00	6.60			
COc1c2c(c(CC=C(C)C)c3oc(=O)c(-c4ccc(O)cc4)c(O)c13)OC(C)(C)C=C2 [lonchocarpic acid]	5.21	11.99 ± 1.93								
COc1c(O)cc2oc3cc(O)c(CC=C(C)C)c(O)c3c(=O)c2c1CC=C(C)C [α-mangostin, 3,6,8-Trihydroxy-2-methoxy-1,7-bis(3-methylbut-2-enyl)xanthen-9-one]	1.12	2.73 ± 2.46	(or, 4.18 ppm)	10.18 ± 1.49				23-29%	scant amounts of neutral lipids	does not induce reproductive side effects
obtusauione	1.62	6.36 ± 1.70								
